The structures appear in SMILES notation.

Data on four compounds can be found in paper PMC8490401, “Chemical proteomic profiling reveals protein interactors of the alarmones diadenosine triphosphate and tetraphosphate” (Nature Communications, 2021).

Assay [1] concerns the target T1, decapping scavenger protein (DcpS) (Homo sapiens, UniProt Q96C86).
T1 construct: His-tagged DcpS
T1 sequence (Q96C86 2-337): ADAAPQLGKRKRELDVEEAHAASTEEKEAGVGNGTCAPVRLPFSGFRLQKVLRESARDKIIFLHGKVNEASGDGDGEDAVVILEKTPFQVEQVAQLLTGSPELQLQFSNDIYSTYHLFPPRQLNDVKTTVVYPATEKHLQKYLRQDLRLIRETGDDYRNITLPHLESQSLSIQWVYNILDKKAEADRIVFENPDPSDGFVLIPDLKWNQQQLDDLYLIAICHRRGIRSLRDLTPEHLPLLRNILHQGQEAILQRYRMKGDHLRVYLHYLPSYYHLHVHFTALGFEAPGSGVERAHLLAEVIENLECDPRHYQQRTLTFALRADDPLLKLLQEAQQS
The experiment in a line: HPLC assay: Ap3A hydrolysed by purified DcpS and slows m7Gp3G cleavage. It counts as biochemical.

The target of assay [2] is T1, decapping scavenger protein (DcpS). Briefly: HPLC assay: Ap4A hydrolysed by purified DcpS and slows m7Gp3G cleavage. The assay is classed as biochemical.
Another assay has as its target LDHA (Homo sapiens, UniProt P00338). Briefly: fluorescence polarization, direct titration of purified protein. The assay is classed as binding.
The target of another assay is T2, PGK1 (Homo sapiens, UniProt P00558).
T2 sequence (P00558 2-417): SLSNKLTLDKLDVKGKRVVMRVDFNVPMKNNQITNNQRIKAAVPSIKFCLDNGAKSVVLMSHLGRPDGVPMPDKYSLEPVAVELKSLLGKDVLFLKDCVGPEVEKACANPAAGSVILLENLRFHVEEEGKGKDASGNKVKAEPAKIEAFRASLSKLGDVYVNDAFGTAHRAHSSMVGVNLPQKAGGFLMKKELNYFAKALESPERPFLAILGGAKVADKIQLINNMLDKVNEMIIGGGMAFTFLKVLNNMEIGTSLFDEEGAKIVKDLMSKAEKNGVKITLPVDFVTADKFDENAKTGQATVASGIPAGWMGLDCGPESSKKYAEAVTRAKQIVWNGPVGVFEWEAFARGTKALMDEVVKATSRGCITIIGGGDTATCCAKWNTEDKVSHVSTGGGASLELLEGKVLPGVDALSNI
Described as above. It counts as binding.

In assay [3] the target is T1, decapping scavenger protein (DcpS). Briefly: HPLC cleavage assay with purified DcpS. The assay is classed as biochemical.

Consider `Nc1ncnc2c1ncn2[C@@H]1O[C@H](COP(=O)(O)OP(=O)(O)OP(=O)(O)OC[C@H]2O[C@@H](n3cnc4c(N)ncnc43)[C@H](O)[C@@H]2O)[C@@H](O)[C@H]1O` [Ap3A, diadenosine triphosphate], for which the “HPLC assay: Ap3A hydrolysed by purified DcpS and slows m7Gp3G cleavage” value in assay [1] is “demonstrating that both Ap3A and Ap4A can be cleaved by DcpS”. For `Nc1ncnc2c1ncn2[C@@H]1O[C@H](COP(=O)(O)OP(=O)(O)OP(=O)(O)OP(=O)(O)OC[C@H]2O[C@@H](n3cnc4c(N)ncnc43)[C@H](O)[C@@H]2O)[C@@H](O)[C@H]1O` [Ap4A, diadenosine tetraphosphate], the “HPLC assay: Ap4A hydrolysed by purified DcpS and slows m7Gp3G cleavage” value in assay [2] was “demonstrating that both Ap3A and Ap4A can be cleaved by DcpS”. `Nc1ncnc2c1ncn2[C@@H]1O[C@H](COP(=O)(O)OP(=O)(O)OP(=O)(O)OC[C@H]2O[C@@H](n3cnc4c(N)nc(C#CCCCNC(=O)c5ccc6c(c5)C(=O)OC65c6ccc(O)cc6Oc6cc(O)ccc65)nc43)[C@H](O)[C@@H]2O)[C@@H](O)[C@H]1O` [F-Ap3A]: the Kd was 35.3 ± 0.69 µM at LDHA and 37.4 ± 1.62 µM at PGK1. Take `C[n+]1cn([C@@H]2O[C@H](COP(=O)(O)OP(=O)([O-])OP(=O)(O)OC[C@H]3O[C@@H](n4cnc5c(=O)[nH]c(N)nc54)[C@H](O)[C@@H]3O)[C@@H](O)[C@H]2O)c2nc(N)[nH]c(=O)c21` [m^7Gp3G]: the “HPLC cleavage assay with purified DcpS” value in assay [3] is on record as “HPLC profiles for the hydrolysis of m^7Gp3G (peak c) catalyzed by DcpS”.

One may read the Kd as a measure of binding affinity in units of concentration. Low values mean higher affinity, high ones lower affinity.
